# Results reported in PubChem BioAssay (NCI).
#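 Assay format: 96-well plates, 48-hour exposure. GI50 is the concentration that inhibits growth by half. Definition used: TGI = concentration required for complete inhibition of growth.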
# Legend:
# Assay in all cases: NCI anticancer screen, dose series, 48 h
# MOLT-4 leukemia = test system: MOLT-4 leukemia
# UACC-62 melanoma = test system: UACC-62 melanoma
# COLO 205 colon = test system: COLO 205 colon
# NCI-H522 lung = test system: NCI-H522 lung
# UACC-257 melanoma = test system: UACC-257 melanoma
# SR leukemia = test system: SR leukemia
# OVCAR-5 ovarian = test system: OVCAR-5 ovarian
# HCT-15 colon = test system: HCT-15 colon
# SNB-19 CNS = test system: SNB-19 CNS
# HS 578T breast = test system: HS 578T breast
compound,measurement,setting,value
N#CC1(N2CCCC2)CCC2(CC1)OCCO2,TGI,MOLT-4 leukemia,> 100 µM
same,TGI,UACC-62 melanoma,> 100 µM
same,TGI,COLO 205 colon,> 10 µM
same,TGI,NCI-H522 lung,> 100 µM
same,TGI,UACC-257 melanoma,> 100 µM
same,TGI,SR leukemia,> 100 µM
same,TGI,OVCAR-5 ovarian,> 100 µM
same,TGI,HCT-15 colon,> 100 µM
same,TGI,SNB-19 CNS,> 100 µM
CC(=O)OC1=C2CC[C@@H]3C(CC[C@@]4(C)C3CC[C@@H]4OC(C)=O)[C@@]2(C)CC(C#N)C1=O (stereo not given in full),TGI,MOLT-4 leukemia,51.3 µM
same,TGI,UACC-62 melanoma,38.9 µM
same,TGI,COLO 205 colon,43.5 µM
same,TGI,UACC-257 melanoma,> 100 µM
same,TGI,OVCAR-5 ovarian,> 100 µM
same,TGI,HCT-15 colon,> 100 µM
same,TGI,SNB-19 CNS,> 100 µM
Brc1ccc(C=NC23CC4CC(CC(C4)C2)C3)cc1,TGI,MOLT-4 leukemia,> 100 µM
same,TGI,UACC-62 melanoma,> 100 µM
same,TGI,COLO 205 colon,> 100 µM
same,TGI,NCI-H522 lung,> 100 µM
same,TGI,UACC-257 melanoma,> 100 µM
same,TGI,OVCAR-5 ovarian,> 100 µM
same,TGI,HCT-15 colon,> 100 µM
same,TGI,SNB-19 CNS,> 100 µM
CO/C=C(\Br)c1ccc2c(c1)OCO2,TGI,MOLT-4 leukemia,> 100 µM
same,TGI,UACC-62 melanoma,> 100 µM
same,TGI,NCI-H522 lung,> 100 µM
same,TGI,UACC-257 melanoma,> 100 µM
same,TGI,SR leukemia,> 100 µM
same,TGI,OVCAR-5 ovarian,> 100 µM
same,TGI,SNB-19 CNS,> 100 µM
O=C(CCCC(=O)N/N=C/c1cc(Cl)ccc1O)N/N=C\c1cc(Cl)ccc1O,GI50,MOLT-4 leukemia,2.52 µM
same,TGI,MOLT-4 leukemia,23.2 µM
same,GI50,COLO 205 colon,4.16 µM
same,TGI,COLO 205 colon,> 100 µM
same,GI50,NCI-H522 lung,3.62 µM
same,TGI,NCI-H522 lung,> 100 µM
same,GI50,UACC-257 melanoma,2.71 µM
same,TGI,UACC-257 melanoma,> 100 µM
same,GI50,HS 578T breast,> 100 µM
same,TGI,HS 578T breast,> 100 µM
same,GI50,OVCAR-5 ovarian,> 100 µM
same,TGI,OVCAR-5 ovarian,> 100 µM
same,GI50,HCT-15 colon,0.574 µM
same,TGI,HCT-15 colon,> 100 µM
same,GI50,SNB-19 CNS,4.42 µM
same,TGI,SNB-19 CNS,> 100 µM
COc1ccc2c(c1)C(=O)c1c-2c(N2CCN(C(=O)CCNCCNCCN)CC2)nc2ccccc12,GI50,MOLT-4 leukemia,1 µM
same,TGI,MOLT-4 leukemia,2.18 µM
same,GI50,UACC-62 melanoma,22.3 µM
same,TGI,UACC-62 melanoma,55.3 µM
same,GI50,COLO 205 colon,2.54 µM
same,TGI,COLO 205 colon,6.34 µM
same,GI50,NCI-H522 lung,11.2 µM
same,TGI,NCI-H522 lung,41.1 µM
same,GI50,UACC-257 melanoma,3.24 µM
same,TGI,UACC-257 melanoma,9.33 µM
same,GI50,HS 578T breast,14.2 µM
same,TGI,HS 578T breast,46.5 µM
same,GI50,SNB-19 CNS,15 µM
same,TGI,SNB-19 CNS,39.8 µM
C[N+](C)(C)C1CC([N+](C)(C)C)C2c3ccccc3C21 (stereo not given),TGI,UACC-62 melanoma,> 100 µM
same,TGI,COLO 205 colon,> 100 µM
same,TGI,NCI-H522 lung,> 100 µM
same,TGI,UACC-257 melanoma,> 100 µM
same,TGI,OVCAR-5 ovarian,> 100 µM
same,TGI,HCT-15 colon,> 100 µM
same,TGI,SNB-19 CNS,> 100 µM
Cc1nc2ccccc2c(/C=C/c2ccccc2)c1C(=O)/C=C/c1ccc(C(F)(F)F)cc1,GI50,MOLT-4 leukemia,0.623 µM
same,TGI,MOLT-4 leukemia,> 100 µM
same,GI50,UACC-62 melanoma,1.48 µM
same,TGI,UACC-62 melanoma,2.93 µM
same,GI50,COLO 205 colon,2.13 µM
same,TGI,COLO 205 colon,5.4 µM
same,GI50,NCI-H522 lung,1.6 µM
same,TGI,NCI-H522 lung,6.32 µM
same,GI50,UACC-257 melanoma,1.96 µM
same,TGI,UACC-257 melanoma,4.25 µM
same,GI50,SR leukemia,0.38 µM
same,TGI,SR leukemia,> 100 µM
same,GI50,OVCAR-5 ovarian,1.93 µM
same,TGI,OVCAR-5 ovarian,4.45 µM
same,GI50,HCT-15 colon,0.721 µM
same,TGI,HCT-15 colon,3.28 µM
same,GI50,SNB-19 CNS,1.65 µM
same,TGI,SNB-19 CNS,3.05 µM
CCOC(=O)CNC(=O)OCc1ccccc1,TGI,MOLT-4 leukemia,> 100 µM
same,TGI,UACC-62 melanoma,> 100 µM
same,TGI,COLO 205 colon,> 100 µM
same,TGI,NCI-H522 lung,> 100 µM
same,TGI,UACC-257 melanoma,> 100 µM
same,TGI,OVCAR-5 ovarian,> 100 µM
same,TGI,HCT-15 colon,> 100 µM
same,TGI,SNB-19 CNS,> 100 µM
[Co].[O-]c1cccnc1C=Nc1ccccc1.[OH3+],GI50,MOLT-4 leukemia,78.3 µM
same,TGI,MOLT-4 leukemia,> 100 µM
same,GI50,UACC-62 melanoma,86.1 µM
same,TGI,UACC-62 melanoma,> 100 µM
same,GI50,COLO 205 colon,> 100 µM
same,TGI,COLO 205 colon,> 100 µM
same,GI50,NCI-H522 lung,39.3 µM
same,TGI,NCI-H522 lung,> 100 µM
same,GI50,UACC-257 melanoma,> 100 µM
same,TGI,UACC-257 melanoma,> 100 µM
same,GI50,OVCAR-5 ovarian,> 100 µM
same,TGI,OVCAR-5 ovarian,> 100 µM
same,GI50,HCT-15 colon,50.4 µM
same,TGI,HCT-15 colon,> 100 µM
same,GI50,SNB-19 CNS,> 100 µM
same,TGI,SNB-19 CNS,> 100 µM
O=S1(=O)c2cc(S(=O)(=O)n3ccnc3)ccc2NC2=NCCCN21,TGI,MOLT-4 leukemia,> 100 µM
same,TGI,UACC-62 melanoma,> 100 µM
same,TGI,COLO 205 colon,35.2 µM
same,TGI,NCI-H522 lung,30.9 µM
same,TGI,UACC-257 melanoma,> 100 µM
same,TGI,SR leukemia,75.6 µM
same,TGI,OVCAR-5 ovarian,> 100 µM
same,TGI,SNB-19 CNS,> 100 µM
Cc1ccc(/C=N/NS(=O)(=O)c2ccccc2)cc1C,TGI,MOLT-4 leukemia,> 100 µM
same,TGI,UACC-62 melanoma,> 100 µM
same,TGI,COLO 205 colon,> 100 µM
same,TGI,UACC-257 melanoma,> 100 µM
same,TGI,SR leukemia,> 100 µM
same,TGI,OVCAR-5 ovarian,> 100 µM
same,TGI,HCT-15 colon,> 100 µM
Cc1[nH]c2ccccc2c1C1=NO/C(=N\O)C(c2c(C)[nH]c3ccccc23)C1 (stereo not given),TGI,MOLT-4 leukemia,69.6 µM
same,TGI,UACC-62 melanoma,62.7 µM
same,TGI,COLO 205 colon,41 µM
same,TGI,UACC-257 melanoma,> 100 µM
same,TGI,SR leukemia,> 78.7 µM
same,TGI,OVCAR-5 ovarian,> 100 µM
same,TGI,HCT-15 colon,> 100 µM
same,TGI,SNB-19 CNS,> 100 µM
CN(C)CCN(C)C(=O)c1cccc2cccc(C(=O)O)c12,TGI,MOLT-4 leukemia,> 100 µM
same,TGI,UACC-62 melanoma,> 100 µM
same,TGI,COLO 205 colon,> 100 µM
same,TGI,UACC-257 melanoma,> 100 µM
same,TGI,SR leukemia,> 100 µM
same,TGI,OVCAR-5 ovarian,> 100 µM
same,TGI,HCT-15 colon,> 100 µM
same,TGI,SNB-19 CNS,> 100 µM
COc1ccc(C[C@]23CCC(=O)N2CCc2cc(OC)c(O)cc23)cc1O,TGI,MOLT-4 leukemia,> 100 µM
same,TGI,UACC-62 melanoma,> 100 µM
same,TGI,COLO 205 colon,> 100 µM
same,TGI,UACC-257 melanoma,> 100 µM
same,TGI,OVCAR-5 ovarian,> 100 µM
same,TGI,HCT-15 colon,> 100 µM
same,TGI,SNB-19 CNS,> 100 µM
Cc1ccc2[nH]c(C(=O)NN3C(=O)C(C)SC34CCC(C)CC4)c(-c3ccccc3)c2c1 (stereo not given),GI50,MOLT-4 leukemia,7.86 µM
same,TGI,MOLT-4 leukemia,32.2 µM
same,GI50,UACC-62 melanoma,11.8 µM
same,TGI,UACC-62 melanoma,25.6 µM
same,GI50,COLO 205 colon,17.8 µM
same,TGI,COLO 205 colon,41.1 µM
same,GI50,NCI-H522 lung,13 µM
same,TGI,NCI-H522 lung,31.1 µM
same,GI50,UACC-257 melanoma,19.1 µM
same,TGI,UACC-257 melanoma,44.5 µM
same,GI50,HS 578T breast,41.8 µM
same,TGI,HS 578T breast,> 100 µM
same,GI50,OVCAR-5 ovarian,17 µM
same,TGI,OVCAR-5 ovarian,34.6 µM
same,GI50,HCT-15 colon,19.4 µM
same,TGI,HCT-15 colon,53.1 µM
same,GI50,SNB-19 CNS,22.7 µM
same,TGI,SNB-19 CNS,62.4 µM
C/C(=C\C(C[C@](C)(O)C(O)CCC#C[Si](C)(C)C)S(=O)(=O)c1ccccc1)CC/C=C/CO[Si](C)(C)C(C)(C)C (stereo not given in full),TGI,MOLT-4 leukemia,23.1 µM
same,TGI,UACC-62 melanoma,33.9 µM
same,TGI,NCI-H522 lung,33 µM
same,TGI,UACC-257 melanoma,32.5 µM
same,TGI,OVCAR-5 ovarian,26.9 µM
same,TGI,HCT-15 colon,34.4 µM
same,TGI,SNB-19 CNS,41.6 µM
CC[C@]12C=CCN3CC[C@@]4(c5ccc(OC)cc5N(C)[C@H]4[C@@](O)(C(=O)OC)[C@@H]1OC(=O)CCC(=O)O[C@H]1CC[C@H]4[C@@H]5CC[C@H]6CC(=O)CC[C@]6(C)[C@H]5CC[C@]14C)[C@@H]32,GI50,MOLT-4 leukemia,2.59 µM
same,TGI,MOLT-4 leukemia,> 100 µM
same,GI50,UACC-62 melanoma,3.25 µM
same,TGI,UACC-62 melanoma,> 100 µM
same,GI50,NCI-H522 lung,2.85 µM
same,TGI,NCI-H522 lung,27 µM
same,GI50,UACC-257 melanoma,3.91 µM
same,TGI,UACC-257 melanoma,16.6 µM
same,GI50,HS 578T breast,3.65 µM
same,TGI,HS 578T breast,> 100 µM
same,GI50,OVCAR-5 ovarian,2.69 µM
same,TGI,OVCAR-5 ovarian,> 100 µM
same,GI50,HCT-15 colon,2.44 µM
same,TGI,HCT-15 colon,> 100 µM
same,GI50,SNB-19 CNS,4.85 µM
same,TGI,SNB-19 CNS,> 100 µM
CC1(C)N=c2cc3c(cc2N1c1ccc(Cl)cc1)=Nc1ccccc1N3c1ccc(Cl)cc1,GI50,MOLT-4 leukemia,1.53 µM
same,TGI,MOLT-4 leukemia,4.04 µM
same,GI50,UACC-62 melanoma,7.18 µM
same,TGI,UACC-62 melanoma,> 100 µM
same,GI50,COLO 205 colon,4.66 µM
same,TGI,COLO 205 colon,21.8 µM
same,GI50,NCI-H522 lung,3.93 µM
same,TGI,NCI-H522 lung,74.6 µM
same,GI50,UACC-257 melanoma,5.52 µM
same,TGI,UACC-257 melanoma,> 100 µM
same,GI50,HS 578T breast,12.2 µM
same,TGI,HS 578T breast,> 100 µM
same,GI50,OVCAR-5 ovarian,8.13 µM
same,TGI,OVCAR-5 ovarian,> 100 µM
same,GI50,HCT-15 colon,4.26 µM
same,TGI,HCT-15 colon,> 100 µM
same,GI50,SNB-19 CNS,58.2 µM
same,TGI,SNB-19 CNS,> 100 µM
O=C(O)CCSC(=O)Nc1cccc2ccccc12,TGI,MOLT-4 leukemia,> 100 µM
same,TGI,UACC-62 melanoma,> 100 µM
same,TGI,COLO 205 colon,> 100 µM
same,TGI,UACC-257 melanoma,> 100 µM
same,TGI,SR leukemia,> 100 µM
same,TGI,OVCAR-5 ovarian,> 100 µM
same,TGI,HCT-15 colon,> 100 µM
same,TGI,SNB-19 CNS,> 100 µM
